The values that follow come from PubChem BioAssay (NCI).

The structures appear in SMILES notation.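 Test compounds were applied to cells in 96-well plates for 48 hours at 5 doses. GI50 = concentration required for 50% inhibition of growth. The concentration for full growth arrest is given as TGI.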 A value given as a limit tells only on which side of the number the result lay.

For the first test, the system named is HT29 colon. Nature of the test: growth of human tumour cells (NCI), 48 h.
`COc1ccc(/C(=C2/O[C@@H]([C@H]3COC(C)(C)O3)[C@H]3OC(C)(C)O[C@@H]23)c2cc(OC)c(OC)c(OC)c2)cc1O`: the GI50 was 26.5 µM and the TGI stood at 52 µM.
In the case of `Cn1c(=O)c2c(nc(-n3nc(-c4ccc(Cl)cc4)cc3N)n2C)n(C)c1=O`, the TGI is greater than 100 µM.
For `N=c1c2c(C(N)=O)cn(C3OC(CO)C(O)C3O)c2ncn1O` (centres undefined), the TGI was 9.64 µM.
Same read-out and setting: then `CCS(=O)(=O)Nc1ccc(Nc2c3ccccc3nc3ccccc23)c(OC)c1`, with 6.56 µM; and `Cc1nc(N)nc(N)c1-c1ccc(Cl)c(Cl)c1`, with greater than 100 µM; and `Cc1cccc2nc3c(C(=O)NCCN(C)C)cccc3cc12`, with 4.54 µM.
Compound `C[C@]12CC[C@@H]3c4ccc(OP(=O)(O)O)cc4CC[C@H]3[C@@H]1CCC2=O` returned a TGI greater than 100 µM.
Turning to `CCSCCC(N)C(=O)O` (centres undefined), the TGI is greater than 100 µM.
Still for that read-out and setting: then `COc1ccc2nc(N/N=C/C(C)=N/Nc3cc(C)c4cc(OC)ccc4n3)cc(C)c2c1`, with 28.7 µM.

For a further test, the system named is MDA-MB-435. Nature of the test: growth of human tumour cells (NCI), 48 h.
`CCN(CC)CC(C)Nc1ccc([N+](=O)[O-])c2sc3ccccc3c(=O)c12` (centres undefined): the GI50 was 2.15 µM and the TGI is 8.33 µM.
Regarding `N=C(N)c1ccc(-c2ccc(-c3cc(Cl)cc(Cl)c3)o2)nc1`, the GI50 was 1.76 µM and the TGI is 3.38 µM.
In the case of `CCOC(=O)CSc1nc(N)c2c(-c3ccc(OC)c(OC)c3)c3c(nc2n1)CCCC3`, the TGI was greater than 100 µM.
On the same count and under the same terms, as for `CNC(=O)OC(C)CN1c2ccccc2Sc2ccc(Cl)cc21` (centres undefined), the figure is greater than 10 µM.
For the compound `O=C(CCCCCCC(=O)Nc1ccc(N(CCCl)CCCl)cc1)NO`, the GI50 was 1.87 µM and the TGI came to 12 µM.
Take `CN1CC[C@@]2(c3cccc(O)c3)CC(=O)/C(=C/c3ccccc3)[C@H]1C2`: the TGI stood at 13.9 µM.
In turn, `O=C(N/N=C(/c1ccccc1)C(F)(F)F)c1ccncc1` came in with a TGI greater than 100 µM.
The same measure, in the same setting: as for `O=S(=O)(O)c1ccc2cccc(N=Nc3c(O)ccc4ccccc34)c2c1`, the figure is greater than 100 µM.
As for `COc1ccc2nc(-c3ccc(-c4noc(-c5cc(OC)c(OC)c(OC)c5)n4)cc3)[nH]c2c1`, the GI50 is 4.27 µM and the TGI was 39.8 µM.
On to `COc1ccc(/C(=C2/O[C@@H]([C@H]3COC(C)(C)O3)[C@H]3OC(C)(C)O[C@@H]23)c2cc(OC)c(OC)c(OC)c2)cc1O`, for which the GI50 is 2.15 µM and the TGI amounted to 5.54 µM.
Compound `Cn1c(=O)c2c(nc(-n3nc(-c4ccc(Cl)cc4)cc3N)n2C)n(C)c1=O` yielded a TGI greater than 100 µM.
The same measure, in the same setting: then `N=c1c2c(C(N)=O)cn(C3OC(CO)C(O)C3O)c2ncn1O` (centres undefined), with 0.74 µM; and `Cc1nc(N)nc(N)c1-c1ccc(Cl)c(Cl)c1`, with greater than 100 µM; and `C[C@]12CC[C@@H]3c4ccc(OP(=O)(O)O)cc4CC[C@H]3[C@@H]1CCC2=O`, with greater than 100 µM.
Take `CCSCCC(N)C(=O)O` (centres undefined): the TGI is greater than 100 µM.
The compound `COc1ccc2nc(N/N=C/C(C)=N/Nc3cc(C)c4cc(OC)ccc4n3)cc(C)c2c1` yielded a TGI of 62.1 µM.
On to `CN(C)CC(=O)Nc1ccc(Cn2nnc3c2C(=O)c2nnn(Cc4ccc(NC(=O)CN(C)C)cc4)c2C3=O)cc1`, for which the GI50 is 0.0708 µM and the TGI is 0.198 µM.

A further test relates to NCI-H226 lung. Nature of the test: growth of human tumour cells (NCI), 48 h.
As to `CCN(CC)CC(C)Nc1ccc([N+](=O)[O-])c2sc3ccccc3c(=O)c12` (centres undefined), the GI50 is 1.09 µM and the TGI was determined as 3.72 µM.
In the case of `N=C(N)c1ccc(-c2ccc(-c3cc(Cl)cc(Cl)c3)o2)nc1`, the GI50 was 2.13 µM and the TGI worked out at 5.19 µM.
Consider `CNC(=O)OC(C)CN1c2ccccc2Sc2ccc(Cl)cc21` (centres undefined), for which the TGI is greater than 10 µM.
For the compound `O=C(CCCCCCC(=O)Nc1ccc(N(CCCl)CCCl)cc1)NO`, the GI50 was 4.01 µM and the TGI stood at 21 µM.
In turn, `CN1CC[C@@]2(c3cccc(O)c3)CC(=O)/C(=C/c3ccccc3)[C@H]1C2` yielded a TGI of 42.5 µM.
Same read-out and setting: then `O=C(N/N=C(/c1ccccc1)C(F)(F)F)c1ccncc1`, with greater than 100 µM.
The compound `ONc1ncnc2nc[nH]c12` registered a TGI greater than 100 µM.
Take `O=S(=O)(O)c1ccc2cccc(N=Nc3c(O)ccc4ccccc34)c2c1`: the TGI was greater than 100 µM.
As for `COc1ccc2nc(-c3ccc(-c4noc(-c5cc(OC)c(OC)c(OC)c5)n4)cc3)[nH]c2c1`, the GI50 is 22.7 µM and the TGI is 81.4 µM.
`COc1ccc(/C(=C2/O[C@@H]([C@H]3COC(C)(C)O3)[C@H]3OC(C)(C)O[C@@H]23)c2cc(OC)c(OC)c(OC)c2)cc1O`: the GI50 was 64.7 µM and the TGI is greater than 100 µM.
Regarding `Cn1c(=O)c2c(nc(-n3nc(-c4ccc(Cl)cc4)cc3N)n2C)n(C)c1=O`, the TGI was greater than 100 µM.
In the case of `N=c1c2c(C(N)=O)cn(C3OC(CO)C(O)C3O)c2ncn1O` (centres undefined), the TGI was 1.57 µM.
`CCS(=O)(=O)Nc1ccc(Nc2c3ccccc3nc3ccccc23)c(OC)c1` came in with a TGI of 3.19 µM.
Compound `Cc1nc(N)nc(N)c1-c1ccc(Cl)c(Cl)c1` yielded a TGI greater than 100 µM.
`Cc1cccc2nc3c(C(=O)NCCN(C)C)cccc3cc12` had a TGI of 4.65 µM.
The compound `CCSCCC(N)C(=O)O` (centres undefined) yielded a TGI greater than 100 µM.
Compound `COc1ccc2nc(N/N=C/C(C)=N/Nc3cc(C)c4cc(OC)ccc4n3)cc(C)c2c1` had a TGI of 53.3 µM.
Consider `CN(C)CC(=O)Nc1ccc(Cn2nnc3c2C(=O)c2nnn(Cc4ccc(NC(=O)CN(C)C)cc4)c2C3=O)cc1`, for which the GI50 is 0.209 µM and the TGI is 0.444 µM.

Another test has as its system NCI-H23 lung. The experiment in a line: growth of human tumour cells (NCI), 48 h.
As for `CCN(CC)CC(C)Nc1ccc([N+](=O)[O-])c2sc3ccccc3c(=O)c12` (centres undefined), the GI50 is 2.42 µM and the TGI is 16.1 µM.
